Source: publication PMC11310079, “Commensal production of a broad-spectrum and short-lived antimicrobial peptide polyene eliminates nasal Staphylococcus aureus” (Nature Microbiology, 2023)

Tests used:
[1] = cited from earlier work
Description: To our knowledge, the combination of peptide–polyene–tetramic acid moieties is unique to epifadin. […] In contrast to the ionophore act ...

[2] = tested on: S. aureus USA300LAC; experiment: Determination of the IC (miniaturized agar diffusion assay); type: cell-based, Staphylococcus aureus; details: agar diffusion on inoculated TSA, 35 µl in 4-mm wells, 24 h 37 °C dark; IC from inhibited agar volume at lowest active amount
Procedure: (§1) Instead, a miniaturized assay was developed. Molten TSA, kept below 42 °C, was inoculated with different test strains at an OD600 of 0.00125. Then, 17.5 ml was poured into Petri dishes, resulting in agar layers of ~3.16 mm thickness. After solidification, a cork borer was used to punch wells of 4-mm diameter into the agar. Thirty-five microlitres of purified epifadin in DMSO–PA (2.4 µg, 1.2 µg, 0.6 µg, 0.3 µg, 0.15 µg and 0.075 µg) was pipetted into the wells, and agar plates were incubated for 24 h at 37 °C in the dark. Diameters of the zones of inhibition were measured and the volume containing the inhibitory epifadin concentration was calculated, using the following formula for cylinder volume: Vc=πxr^2xhVc=cylindervolumeVi=πrz2xha−(πrw2xha)Vi=inhibitedvolumerz2=radius(diameter/2)zoneofinhibitionrw2=radius(diameter/2)ofwellha=heightofagar
(§2) The volume of agar showing inhibition of the test strain was then correlated with the included amount of epifadin, and the epifadin concentration necessary to inhibit test strain growth in a 1 ml volume was calculated to yield IC values. If, for example, 2.4 µg of epifadin lead to an inhibited volume of 480 µl, to inhibit a volume of 1 ml, 5 µg epifadin is needed, which corresponds to an IC of 5 μg ml^−1. These calculations were conducted for the lowest amount of epifadin that led to a zone of inhibition to minimize the necessary epifadin amounts and the calculation error due to the gradient within the inhibition zone. As a control, the same assay was used to determine the IC for vancomycin, daptomycin and lugdunin under these conditions.

[3] = tested on: S. aureus USA300 JE2; experiment: as above; type: cell-based, Staphylococcus aureus; details: agar diffusion on inoculated TSA, 24 h 37 °C dark; IC from inhibited agar volume
Procedure: as §1, §2

[4] = tested on: S. aureus USA300 LAC; experiment: Stability analysis of epifadin (bioactivity by agar diffusion after incubation); type: physicochemical, Staphylococcus aureus; details: lugdunin 70 µg/ml in TSB, 37 °C, pH 7, light, r4-r10 = 0-6 h
Procedure: Fig. 2 High instability of epifadin under in vivo-like conditions. S. epidermidis IVK83 culture supernatants containing epifadin were precipitated with HCl, freeze-dried and extracted with DMSO. This extract was diluted in TSB, incubated for the indicated time periods with constant shaking under the respective conditions and subsequently tested for activity towards S. aureus USA300 LAC. a, Stability of epifadin compared with other antibacterial agents under standard laboratory conditions (37 °C, pH 7, laboratory light exposure). b, In vivo-like conditions with laboratory light exposure at pH 7 (nasal condition) or pH 5.5 (skin condition) and reduced temperatures; incubation of epifadin under exclusion from light enabled further purification and activity determination. Conditions at pH 7, 37 °C and 0 h were used as reference for 100% stability. Data shown represent the mean ± s.d. of three independent experiments. Source data
The effect of different incubation conditions on the bioactivity of epifadin was analysed by agar diffusion assays on lawns of the sensitive indicator strain S. aureus USA300 LAC. To this end, liquid TSA was inoculated with an overnight culture of USA300 at an OD600 of 0.00125. After solidification of the agar, a cork borer was used to punch wells into the agar with 5 mm diameter. TSB media with 50 mM sodium citrate (pH 5 and 6) or 50 mM tris(hydroxymethyl)aminomethane (pH 8 and 9) were prepared. Epifadin-containing precipitate was dissolved in DMSO (12 mg ml^−1), and insoluble particles were removed by centrifugation. The supernatant was added to the prepared TSB media at a final concentration of 750 µg precipitate per millilitre (37.5 µg in 50 µl). Media were incubated for 6 h at 21 °C, 30 °C or 37 °C with or without laboratory light exposure and constant shaking at 500 rpm in a thermomixer (Eppendorf). As controls, 70 µg ml^−1 (3.5 µg in 50 µl) lugdunin, 24 µg ml^−1 (1.2 µg in 50 µl) gallidermin and 100 µg ml^−1 (5 µg in 50 µl) nisin were used. At different timepoints, 50 µl of each sample was pipetted into the wells of the agar plates. After incubation at 37 °C overnight, zones of inhibition were analysed with ImageJ software (version 1.8.0_112).

For `CC(=O)C1=C(O)[C@@H](CC(C)C)NC1=O` [mutanocyclin], the antimicrobial activity [1] is given as “not antimicrobial”.

In the case of `CCCCCCC/C=C/C(=O)N1C(O)=C(C(C)=O)C(=O)[C@H]1CC(C)C` [reutericyclin A], the antimicrobial activity [1] is given as “antimicrobial”.

With Lugdunin the “IC*” value [2] was 7.3 µg/mL, the “IC*” value [3] was 8.5 µg/mL and the “stability (remaining antimicrobial activity, 0 h = 100%)” value ([4]; experiment 1 of 3, after 1 h incubation) was 83.34%. For the same molecule, the “stability (remaining antimicrobial activity, 0 h = 100%)” value ([4]; experiment 1 of 3, after 2 h incubation) was 75.95%, the “stability (remaining antimicrobial activity, 0 h = 100%)” value ([4]; experiment 1 of 3, after 3 h incubation) was 68.18% and the “stability (remaining antimicrobial activity, 0 h = 100%)” value ([4]; experiment 1 of 3, after 4 h incubation) was 72.38%. For the same molecule, the “stability (remaining antimicrobial activity, 0 h = 100%)” value ([4]; experiment 1 of 3, after 5 h incubation) was 65.52%, the “stability (remaining antimicrobial activity, 0 h = 100%)” value ([4]; experiment 1 of 3, after 6 h incubation) was 61.66% and the “stability (remaining antimicrobial activity, 0 h = 100%)” value ([4]; experiment 2 of 3, after 1 h incubation) was 81.19%. The “stability (remaining antimicrobial activity, 0 h = 100%)” value ([4]; experiment 2 of 3, after 2 h incubation) was 74.91%, the “stability (remaining antimicrobial activity, 0 h = 100%)” value ([4]; experiment 2 of 3, after 3 h incubation) was 69.51% and the “stability (remaining antimicrobial activity, 0 h = 100%)” value ([4]; experiment 2 of 3, after 4 h incubation) was 68.58%. The “stability (remaining antimicrobial activity, 0 h = 100%)” value ([4]; experiment 2 of 3, after 5 h incubation) was 65.27%, the “stability (remaining antimicrobial activity, 0 h = 100%)” value ([4]; experiment 2 of 3, after 6 h incubation) was 69.75% and the “stability (remaining antimicrobial activity, 0 h = 100%)” value ([4]; experiment 3 of 3, after 1 h incubation) was 81.54%. For the same molecule, the “stability (remaining antimicrobial activity, 0 h = 100%)” value ([4]; experiment 3 of 3, after 2 h incubation) was 76.22%, the “stability (remaining antimicrobial activity, 0 h = 100%)” value ([4]; experiment 3 of 3, after 3 h incubation) was 72.30% and the “stability (remaining antimicrobial activity, 0 h = 100%)” value ([4]; experiment 3 of 3, after 4 h incubation) was 70.84%. The “stability (remaining antimicrobial activity, 0 h = 100%)” value ([4]; experiment 3 of 3, after 5 h incubation) was 67.83% and the “stability (remaining antimicrobial activity, 0 h = 100%)” value ([4]; experiment 3 of 3, after 6 h incubation) was 62.11%.
